Reference: patent publication US5332820A, “Dibenzobicyclo(2.2.2) octane angiotensin II antagonists” (priority 1991, dated 1994)

Key:
[1] = system: effects of AII on the blood pressure of pithed rats; settings: cited from earlier work
[2] = system: arterial pressure in mammals and man; settings: cited from earlier work
[3] = system: renal vasoconstrictor effect of indomethacin and meclofenamate; settings: dogs; cited from earlier work
[4] = target: AII receptor (rat adrenal cortical microsomes); assay: Angiotensin II receptor binding (ligand-receptor binding assay; displacement of 3H-AII or 125I-AII); settings: 2 nM 3H-AII or 0.05 nM 125I-AII, 1 hour, room temperature
Method: The hormone angiotensin II (AII) produces numerous biological responses, e.g., vasoconstriction, through stimulation of its receptors on cell membranes. For the purpose of identifying compounds such as AII antagonists which are capable of interacting with the AII receptor, a ligand-receptor binding assay was utilized for the initial screen. The assay was carried out according to the method described by Glossmann, et al., J. Biol. Chem., 249, 825 (1974), but with some modifications. The reaction mixture contained rat adrenal cortical microsomes (source of AII receptor) in Tris buffer and 2 nM of ^3 H-AII or 0.05 nM ^125 I-AII with or without potential AII antagonist. This mixture was incubated for 1 hour at room temperature and the reaction was subsequently terminated by rapid filtration and rinsing through glass micro-fibre filter. Receptor-bound ^3 H-AII or ^125 I-AII trapped in filter was quantitated by scintillation counting. The inhibitory concentration (IC50) of potential AII antagonist which gives 50% displacement of the total specifically bound ^3 H-AII or ^125 I-AII is a measure of the affinity of such compound for the AII receptor.

[5] = system: Renal Hypertensive Rats; assay: Antihypertensive effects in renal hypertensive rats, intravenous activity; type: in vivo, rat; settings: awake renal artery-ligated rats; i.v.; 10 mg/kg (footnote)
Method: This procedure increases blood pressure by increasing renin production with consequent elevation of AII levels. […] Arterial blood pressure is continuously measured directly through a carotid artery cannula and recorded using a pressure transducer and a polygraph. Blood pressure levels after treatment are compared to pretreatment levels to determine the antihypertensive effects of the compounds which were tested.

[6] = system: renal vasoconstrictor effect of indomethacin; settings: dogs with non-hypotensive hemorrhage; cited from earlier work

SMILES | IC50 [4] | Antihypertensive Effects in Renal Hypertensive Rats, Intravenous Activity [5] | other results
CNCC(=O)N[C@@H](CCCN=C(N)N)C(=O)N[C@H](C(=O)N[C@@H](Cc1ccc(O)cc1)C(=O)N[C@H](C(=O)N[C@@H](Cc1cnc[nH]1)C(=O)N1CCC[C@H]1C(=O)N[C@@H](C)C(=O)O)C(C)C)C(C)C [Saralasin] | – | – | block of the effects of AII on blood pressure of pithed rats [1]: blocks the effects of AII on the blood pressure of pithed rats; effect on arterial pressure when the (elevated) pressure is dependent on circulating AII ([2]; mammals and man, AII-dependent pressure): lower arterial pressure in mammals and man; oral effectiveness ([2]; oral doses): oral doses being ineffective; duration of action ([2]; parenteral administration): relatively short-lasting; effect when the pressure is not sustained by AII (agonistic character) ([2]; pressure not sustained by AII): generally elicits pressor effects; inhibition of renal vasoconstrictor effect of indomethacin and meclofenamate [3]: inhibit the renal vasoconstrictor effect of indomethacin and meclofenamate in dogs
CCCCc1nc(Cl)c(C=O)n1Cc1ccc2c(c1)C1c3ccccc3C2C(C(=O)O)C1C(=O)O (mixture of isomers) [Example 2B, (±)-trans-2-[(2-n-butyl-4-chloro-5-formylimidazol-1-yl)methyl]-9,10-dihydro-9,10-ethanoanthracene-11,12-dicarboxylic acids, both diastereomers] | 0.32 µM | + (Significant decrease in blood pressure at 10 mg/kg or less) | –
CCCCc1nc(Cl)c(C=O)n1Cc1ccc2c(c1)C1c3ccccc3C2C(c2nnn[nH]2)C1c1nnn[nH]1 (mixture of isomers) [Example 3, (±)-trans-2-[(2-n-butyl-4-chloro-5-formylimidazol-1-yl)methyl]-9,10-dihydro-9,10-ethano-11,12-bis (1H-tetrazol-5-yl)anthracene, both diastereomers] | 0.092 µM | + (Significant decrease in blood pressure at 10 mg/kg or less) | –
CCCCc1nc(Sc2ccccc2)c(C=O)n1Cc1ccc2c(c1)C1c3ccccc3C2C(c2nnn[nH]2)C1c1nnn[nH]1 (mixture of isomers) [Example 4, (±)-trans-2-[(2-n-butyl-4-phenylthio-5-formylimidazol-l-yl)methyl]-9,10-dihydro-9,10-ethano-11,12-bis (1H-tetrazol-5-yl) anthracene: one diastereomer] | 0.46 µM | + (Significant decrease in blood pressure at 10 mg/kg or less) | –
CCCCc1nc(Cl)c(C=O)n1Cc1ccc2c(c1)C1c3ccccc3C2C(C(=O)O)C1C(=O)O (mixture of isomers) [Example 1, (±)-cis-2-[(2-n-butyl-4-chloro-5-formylimidazol-1-yl)methyl]-9,10-dihydro-9,10-ethanoanthracene-11,12-dicarboxylic acid, a mixture of endo and oxo isomers] | 1.1 µM | + (Significant decrease in blood pressure at 10 mg/kg or less) | –
CCCCc1nc(Cl)c(C=O)n1Cc1ccc2c(c1)C1c3ccccc3C2C(C(=O)O)C1C(=O)O (mixture of isomers) [Example 2A, (±)-trans-2-[(2-n-butyl-4-chloro-5-formylimidazol-1-yl)methyl]-9,10-dihydro-9,10-ethanoanthracene-11,12-dicarboxylic acids, both diastereomers] | 0.22 µM | + (Significant decrease in blood pressure at 10 mg/kg or less) | –
C[C@H](CS)C(=O)N1CCC[C@H]1C(=O)O [captopril] | – | – | reversal of renal vasoconstrictor effect of indomethacin [6]: reverse the renal vasoconstrictor effect of indomethacin in dogs
